Source: PMC7127144 (Bioorganic & Medicinal Chemistry, 2006)

Legend:
SARSCoV = assay: organism not typed; format: cell-based; conditions: read-out: SARSCoV IC50
in vitro [1] = conditions: human
in vitro [2] = conditions: human; remark: listed apart in the source
HIV-1 (strain LAI) = format: cell-based
[3] = system: Punta Toro virus (strain Adames)
PBM cells = conditions: human

Compound | IC50 (SARSCoV) [µM] | IC50 (in vitro [1]) [µM] | IC50 (in vitro [2]) [µM] | Anti-HIV activity (in words) (HIV-1 (strain LAI)) | Cytotoxicity in the Punta Toro virus assay (in words) [3] | IC50 (PBM cells) [µM]
Nc1nc(=O)c([C@@H]2C=C(CO)[C@@H](O)[C@H]2O)c[nH]1 [Compound 3, (1′S,2′S,3′R)-5-(2′,3′-Dihydroxy-4′-hydroxymethyl-4′-cyclopenten-1′-yl)-isocytosine] | > 100 | > 100 | > 100 |  |  | 
Nc1ncnc2c([C@@H]3C=C(CO)[C@@H](O)[C@H]3O)c[nH]c12 [Compound 1, (1′S,2′S,3′R)-4-Amino-7-(2′,3′-dihydroxy-4′-hydroxymethyl-4′-cyclopenten-1′-yl)-5H-pyrrolo[3,2-d]pyrimidine] |  |  |  | moderate anti-HIV activity |  | 
Nc1nc(O)c2[nH]cc([C@@H]3C=C(CO)[C@@H](O)[C@H]3O)c2n1 [Compound 2, (1′S,2′S,3′R)-9-(2′,3′-Dihydroxy-4′-hydroxymethyl-4′-cyclopenten-1′-yl)-deazaguanosine] | > 100 | > 100 | > 100 |  | without any cytotoxicity | 
O=c1[nH]cc([C@@H]2C=C(CO)[C@@H](O)[C@H]2O)c(=O)[nH]1 [Compound 4, (1′S,2′S,3′R)-5-(2′,3′-Dihydroxy-4′-hydroxymethyl-4′-cyclopenten-1′-yl)uracil] | > 100 | > 100 | > 100 |  | without any cytotoxicity | 
Cc1cn([C@H]2C[C@H](N=[N+]=[N-])[C@@H](CO)O2)c(=O)[nH]c1=O [AZT] |  |  |  |  |  | > 100
